From patent EP4722365A1, “DOUBLE-STRANDED NUCLEOTIDE COMPOUND FOR METABOLIC DISEASES AND USE THEREOF” (Visirna Therapeutics (Suzhou) Co., Ltd., priority 2023, dated 2024)

Experiments:
DGAT2 [1] = assay: In-vitro inhibitory activity test on target gene DGAT2 in Huh7 cells (siRNA transfection, mRNA by qPCR); format: cell-based, human; conditions: Table 3.3
Procedure: The test compound was prepared into a 20 µM mother liquor with PBS.
Huh7 cells. Huh7 cells were cultured in DMEM medium (Gibco article number 11965-092) containing 10% fetal bovine serum (FBS, ExCell Bio article number FSP500), 1% glutamine (GlutaMAX, Gibco article number 35050061), 1% NEAA (gibco article number 11140050), and 1% penicillin-streptomycin (HyClone article number SV30010).
Huh7 cells (2 × 10^4 cells/well) were inoculated into a 96-well plate, and siRNA was transfected into the cells while plating. […] At the same time, a compound-free control group containing RNAiMAX was set up.
24 hrs after transfection, the medium was removed and the cells were collected for RNA extraction. Total RNA was extracted by using RNeasy® 96 Kit (QIAGEN-74182) according to the instructions for use of the kit. cDNA was synthesized by using FastKing RT Kit (with gDNase) (Tiangen-KR116-02) according to the instructions.
The target cDNA was detected by qPCR, and GAPDH cDNA as an internal control was detected in parallel. 8 µL of prepared PCR reaction solution and 2 µL of sample cDNA were added into a 384 well plate. […]
The expression level of the target gene mRNA in each sample was calculated by ΔΔCt relative quantitative method. […]
GraphPad Prism software was used for plotting and analysis, and the inhibition rate was expressed as mean ± SD.

human DGAT2 = assay: Non-alcoholic steatohepatitis induced by a western diet in human DGAT2 carrying mice (Example 9, liver histology scores); format: in vivo, mouse; conditions: for Ballooning degeneration / Fibrosis score / Grade of steatosis / Lobular inflammation / NAFLD score: B6-hDGAT2 mice, western diet
Procedure: Humanized mice with B6-hDGAT2-TG target and non-alcoholic steatohepatitis model were provided by GemPharmatech LLC. On D0, subcutaneous administration and induction and feeding with western diet were started. On D29, the second injection was performed. Effective period: 8 weeks. 4 mice in one group were sacrificed at 4-week endpoint, and 4 mice in the other group were sacrificed at 8-week endpoint.
Plasma was collected every week to detect the levels of TG, Chol, HDL-C, LDL-C, ALT, and AST, and the liver was stained with HE and NASH score were obtained at the endpoint.

DGAT2 [2] = assay: Inhibitory activity of dS319 on the target gene DGAT2 in non-naive Cynomolgus macaque (Example 11); format: in vivo; conditions: for Average inhibition rate, %: 3mpk subcutaneous on days 1 and 29, liver
Procedure: In-vivo experiment: The in-vivo experimental designs for subcutaneous injection in non-naive Cynomolgus macaque, the administration and the sample collection method were shown in the table below. The day of administration to non-naive Cynomolgus macaque was defined as day 1, the day before it was day 0, the day after it was day 2, and so on. Each group had 2 animals. On days 1 and 29, the animals were injected subcutaneously with the solvent or 0.5 mL/kg of the test compound.
On day 0 (0 h) before administration by SC, and days 7, 29, 56 and 99 after administration, the liver sample was collected. Collection method: The animals was fasted for 12-16 hrs before sample collection. Collection of liver biopsy tissue: The collection process would be operated and recorded according to the SOP of the research institution.

[3] = 3mpk, D0 and D29, 8-week endpoint
[4] = 3mpk, 4-week endpoint, mean ± SEM
[5] = 6mpk, D0 and D29, 8-week endpoint
[6] = 6mpk, 4-week endpoint, mean ± SEM

dS319: sense (invAb)*acaccauaGfAfCfuauuugcuua[L96]; anti-sense Vpu*Af*a*GfcAfaauagUfcUfaUfgGfuGf* u
IC50 (DGAT2 [1]): 0.0163 nM | Ballooning degeneration (human DGAT2; [3]): 2.0±0.0 | Fibrosis score (human DGAT2; [3]): 0.9±0.1 | Grade of steatosis (human DGAT2; [3]): 1.0±0.0 | Lobular inflammation (human DGAT2; [3]): 1.8±0.2 | NAFLD score (human DGAT2; [3]): 4.8±0.2 | Ballooning degeneration (human DGAT2; [4]): 2.0±0.0 | Fibrosis score (human DGAT2; [4]): 0.5±0.1 | Grade of steatosis (human DGAT2; [4]): 0.7±0.1 | Lobular inflammation (human DGAT2; [4]): 2.2±0.1 | NAFLD score (human DGAT2; [4]): 4.9±0.2 | Ballooning degeneration (human DGAT2; [5]): 1.3±0.1 | Fibrosis score (human DGAT2; [5]): 0.8±0.2 | Grade of steatosis (human DGAT2; [5]): 1.1±0.1 | Lobular inflammation (human DGAT2; [5]): 2.0±0.1 | NAFLD score (human DGAT2; [5]): 4.3±0.0 | Ballooning degeneration (human DGAT2; [6]): 1.3±0.1 | Fibrosis score (human DGAT2; [6]): 0.4±0.1 | Grade of steatosis (human DGAT2; [6]): 0.5±0.2 | Lobular inflammation (human DGAT2; [6]): 1.6±0.2 | NAFLD score (human DGAT2; [6]): 3.4±0.2 | improvement on non-alcoholic steatohepatitis (NASH) by NAFLD activity score (human DGAT2; FIG. 1 legend, hDGAT2 combined with western diet, over 4 weeks): improvement | improvement on fibrosis in non-alcoholic steatohepatitis (human DGAT2; FIG. 2 legend, hDGAT2 combined with western diet, over 4 weeks): improvement | Average inhibition rate, % (DGAT2 [2]; D7): 84.9% | Average inhibition rate, % (DGAT2 [2]; D28): 93.2% | Average inhibition rate, % (DGAT2 [2]; D56): 89.4% | Average inhibition rate, % (DGAT2 [2]; D99): 88% | inhibitory activity on the target gene DGAT2 (DGAT2 [2]; conclusion in words, non-naive Cynomolgus macaque): long-term inhibitory activity
